“And” between values parts separate entries of the source, which are not always exact repeats. Equal values may be shown once.
Experiments:
rhFUCA1 = rhFUCA1 (Homo sapiens (Human), UniProt P04066); assay: In vitro fucosidase inhibition (4MU-FUC fluorescence); format: biochemical; conditions: 1 ng/mL rhFUCA1, 640 nM 4MU-FUC, pH 4.5, 37° C., 30 minutes
Procedure: Fucosidase inhibition was assessed by preparing a reaction mixture of 50 mM phosphate-citrate pH 4.5, 5 mM MgCl2, 640 nM 4-methylumbelliferyl-alpha-L-fucopyranoside (4MU-FUC), 1 ng/mL rhFUCA1 (R&D Systems), and compound II, III, or IV:
Reactions (100 μL) were incubated at 37° C. for 30 minutes and then quenched with the same volume of 600 mM citrate-carbonate buffer, pH 9. Fluorescence was measured by excitation at 360 nm and emission at 450 nm.

[1] = tested on: human hepatocarcinoma cell line HepG2; assay: Orthotopic model of human hepatocellular carcinoma; format: in vivo, nude mice
Procedure: To assess the compounds in vivo, an orthotopic model of human hepatocellular carcinoma was used. The orthotopic tumor model was generated by implanting human hepatocarcinoma cell line HepG2 into nude mice and allowing the tumor cells to grow in vivo.
The efficacy study was carried out using 10 mice per group and two dosage regimens. Compound II (see Example 2) was administered by oral gavage (po) at a dosage of 175 mg/kg once daily for 3 weeks (QDx21) or at a dosage of 87.5 mg/kg twice daily for 3 weeks (BIDx21). Vehicle (100 μL) was administered to control animals.

[2] = Pharmacokinetics in mouse plasma; format: in vivo; conditions: for Conc. of cmpd II: individual animal
Procedure: To assess the pharmacokinetics of compound II (see Example 2) in mouse plasma, compound II was administered intravenously at a dosage of 1 mg/kg. Compound II concentration was measured at various time points up to 24 hours after administration, and the results are provided in Table 5.

[3] = Biodistribution in mouse liver and colon; format: in vivo; conditions: for Conc. of cmpd II in colon / Mean conc. of cmpd II in colon: mouse colon; for Conc. of cmpd II in colon / Conc. of cmpd II in liver: individual animal; for Conc. of cmpd II in liver / Mean conc. of cmpd II in liver: mouse liver
Procedure: To assess the biodistribution of compound II (see Example 2) in mouse liver and colon, compound II was administered intravenously at a dosage of 1 mg/kg.

[4] = 87.5 mg/kg po twice daily (BIDx21), Day 0
[5] = 87.5 mg/kg po twice daily (BIDx21), Day 2
[6] = 87.5 mg/kg po twice daily (BIDx21), Day 5
[7] = 87.5 mg/kg po twice daily (BIDx21), Day 9
[8] = 87.5 mg/kg po twice daily (BIDx21), Day 12
[9] = 87.5 mg/kg po twice daily (BIDx21), Day 16
[10] = 87.5 mg/kg po twice daily (BIDx21), Day 20
[11] = 175 mg/kg po once daily (QDx21), Day 0
[12] = 175 mg/kg po once daily (QDx21), Day 2
[13] = 175 mg/kg po once daily (QDx21), Day 5
[14] = 175 mg/kg po once daily (QDx21), Day 9
[15] = 175 mg/kg po once daily (QDx21), Day 12
[16] = 175 mg/kg po once daily (QDx21), Day 16
[17] = 175 mg/kg po once daily (QDx21), Day 20

Chain of rhFUCA1 (P04066 32-466): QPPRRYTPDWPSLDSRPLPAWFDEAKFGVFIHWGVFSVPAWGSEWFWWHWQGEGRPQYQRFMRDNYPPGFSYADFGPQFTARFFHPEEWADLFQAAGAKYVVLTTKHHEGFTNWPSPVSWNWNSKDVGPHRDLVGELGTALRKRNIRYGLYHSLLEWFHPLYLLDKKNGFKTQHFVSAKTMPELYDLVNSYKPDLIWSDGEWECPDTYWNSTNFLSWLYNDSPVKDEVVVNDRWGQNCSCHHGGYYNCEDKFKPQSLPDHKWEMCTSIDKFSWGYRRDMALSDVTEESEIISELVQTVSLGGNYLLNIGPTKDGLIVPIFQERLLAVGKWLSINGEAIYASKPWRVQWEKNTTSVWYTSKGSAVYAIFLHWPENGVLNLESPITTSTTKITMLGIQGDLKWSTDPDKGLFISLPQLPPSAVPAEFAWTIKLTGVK

Q: Which results are given for C[C@@H]1N[C@H](CNC(=O)c2cccc3c2C(=O)c2ccccc2-3)[C@@H](O)[C@H](O)[C@@H]1O [Compound II]?
A: IC50 (rhFUCA1): 16 nM; Body Weight [1, 4]: 22.45 g; Tumor Volume [1, 4]: 212 mm^3; Body Weight [1, 5]: 22.05 g; Tumor Volume [1, 5]: 224 mm^3; Body Weight [1, 6]: 21.93 g; Tumor Volume [1, 6]: 227 mm^3; Body Weight [1, 7]: 21.58 g; Tumor Volume [1, 7]: 247 mm^3; Body Weight [1, 8]: 21.51 g; Tumor Volume [1, 8]: 270 mm^3; Body Weight [1, 9]: 20.39 g; Tumor Volume [1, 9]: 326 mm^3; Body Weight [1, 10]: 20.86 g; Tumor Volume [1, 10]: 320 mm^3; Body Weight [1, 11]: 22.93 g; Tumor Volume [1, 11]: 211 mm^3; Body Weight [1, 12]: 22.94 g; Tumor Volume [1, 12]: 238 mm^3; Body Weight [1, 13]: 22.28 g; Tumor Volume [1, 13]: 277 mm^3; Body Weight [1, 14]: 22.1 g; Tumor Volume [1, 14]: 320 mm^3; Body Weight [1, 15]: 22.26 g; Tumor Volume [1, 15]: 348 mm^3; Body Weight [1, 16]: 20.58 g; Tumor Volume [1, 16]: 364 mm^3; Body Weight [1, 17]: 19.98 g; Tumor Volume [1, 17]: 416 mm^3; Conc. of cmpd II ([2]; IV 1 mg/kg qdx1, 5 min): 247 ng/mL and 313 ng/mL and 259 ng/mL; Mean conc. of cmpd II ([2]; IV 1 mg/kg qdx1, 5 min): 273 ng/mL; Conc. of cmpd II ([2]; IV 1 mg/kg qdx1, 1 h): 28.7 ng/mL and 31.8 ng/mL and 34.3 ng/mL; Mean conc. of cmpd II ([2]; IV 1 mg/kg qdx1, 1 h): 31.6 ng/mL; Conc. of cmpd II ([2]; IV 1 mg/kg qdx1, 2 h): 8.58 ng/mL and 5.83 ng/mL and 9.10 ng/mL; Mean conc. of cmpd II ([2]; IV 1 mg/kg qdx1, 2 h): 7.84 ng/mL; Conc. of cmpd II ([2]; IV 1 mg/kg qdx1, 4 h): 2.76 ng/mL and 1.86 ng/mL and 3.36 ng/mL; Mean conc. of cmpd II ([2]; IV 1 mg/kg qdx1, 4 h): 2.66 ng/mL; Conc. of cmpd II ([2]; IV 1 mg/kg qdx1, 8 h): 1.56 ng/mL and 1.17 ng/mL and 1.57 ng/mL; Mean conc. of cmpd II ([2]; IV 1 mg/kg qdx1, 8 h): 1.43 ng/mL; Conc. of cmpd II ([2]; IV 1 mg/kg qdx1, 12 h): 1.04 ng/mL and 1.06 ng/mL and 2.04 ng/mL; Mean conc. of cmpd II ([2]; IV 1 mg/kg qdx1, 12 h): 1.38 ng/mL; Conc. of cmpd II ([2]; IV 1 mg/kg qdx1, 24 h): BQL (Below Quantitation limit <1.0 ng/m1); Conc. of cmpd II in colon ([3]; IV 1 mg/kg qdx1, 1 h): 1770 ng/g and 1640 ng/g and 1930 ng/g; Mean conc. of cmpd II in colon ([3]; IV 1 mg/kg qdx1, 1 h): 1780 ng/g; Conc. of cmpd II in colon ([3]; IV 1 mg/kg qdx1, 8 h): 638 ng/g and 289 ng/g and 872 ng/g; Mean conc. of cmpd II in colon ([3]; IV 1 mg/kg qdx1, 8 h): 600 ng/g; Conc. of cmpd II in liver ([3]; IV 1 mg/kg qdx1, 1 h): 298 ng/g and 301 ng/g and 188 ng/g; Mean conc. of cmpd II in liver ([3]; IV 1 mg/kg qdx1, 1 h): 262 ng/g; Conc. of cmpd II in liver ([3]; IV 1 mg/kg qdx1, 8 h): 9.03 ng/g and 7.64 ng/g and 12.9 ng/g; Mean conc. of cmpd II in liver ([3]; IV 1 mg/kg qdx1, 8 h): 9.86 ng/g

Reference: patent US10308607B2, “Fucosidase inhibitors” (HORIZON ORPHAN LLC, priority 2015, dated 2019)
